The test system of one data set is COG-LL-332. The experiment in a line: DIMSCAN cytotoxicity assay, COG-LL-332. The class given is cell-based. The note with it: COG-LL-332, sphinganine 1 μM, GT-11 0.5 μM, 48 hours. The source says:
Cell culture. The pre-T acute lymphoblastic leukemia cell lines MOLT-4 and CCRF-CEM, small cell lung cancer cell line NCI-H146, non-small cell lung cancer cell line NCI-H1792, colon cancer cell lines LoVo and HT-29, and breast cancer cell line MCF-7, were purchased from American Type Culture Collection, Manassas, Va., and grown at 20%/5% and 5%/5%, respectively. COG-LL-317 and COG-LL-332 pre-T acute lymphoblastic leukemia cell lines were obtained from the TTUHSC Cancer Center Cell Repository and grown at 5%/5%. Cell line identities were verified by short tandem repeat analysis and mycoplasma testing was performed. Cell lines were maintained in RPMI-1640 medium supplemented with 10% fetal bovine serum (FBS, Invitrogen) in humidified, 37° C. incubators. For all experiments, ALL cell lines were seeded at […] in RPMI-1640 medium supplemented with 15% fetal bovine serum. Solid tumor cell lines were plated at 5×cells/mL in RPMI-1640 medium supplemented with 10% fetal bovine serum.
Cytotoxicity Assay. Cytoxicity is determined using the DIMSCAN assay system (R. Proffitt et al., Cytometry 24, 204-213 (1996); T. Frgala et al., Proc. AACR, 36, 303 (1995). The system employs digital imaging microscopy to quantify viable cells, which selectively accumulate fluorescein diacetate to become brightly fluorescent. The system is capable of measuring cytotoxicity over a 4-5 log dynamic range by quenching the residual fluorescence of dead and dying cells with eosin Y and quantifying the total fluorescence of viable cells using digital thresholding. Measured fluorescence is directly proportionate to the number of viable cells. A comparison of the total fluorescence of a drug-treated cell population to the fluorescence of a similar number of untreated cells yields a survival fraction. […]
The addition of C22:0-fatty acid, but not C18:0 or C22:1 fatty acids, increased cytotoxicity (FIGS. 7A-7F). […] Cytotoxicity was measured using DIMSCAN, and data was normalized to control and plotted as survival fraction (y-axis). […]

Data set [1] deals with intracellular sphingolipids, MOLT-4. The experiment in a line: LC/MS/MS analysis of intracellular sphingolipids, MOLT-4. The format is cell-based, human. The settings on record: for increase in corresponding dihydroceramide over sphinganine+GT-11 alone: MOLT-4, fatty acid with sphinganine+GT-11, six hours, P<0.05. As to the method: (§1) LC/MS/MS analysis of intracellular sphingolipids. Sphingolipids were separated using an Agilent 1200 HPLC (LC) and determined by ESI/MS/MS performed on a AB SCIEX 4000 QTRAP Hybrid Triple Quadrupole/Linear Ion Trap mass spectrometer (MS), operating in a multiple reaction monitoring positive ionization mode as described previously with moderate modifications (25). Briefly, 50 μL of a solution (1 μM) of internal sphingolipid standards (including -sphingosine, -sphinganine, -sphingosine-1-phosphate, and -ceramide) was added to each cell pellet sample. Lipids of each sample were extracted twice with 2 mL of the ethyl acetate/isopropyl alcohol/water (60:28:12; v:v) solvent system. Supernatants were transferred to glass tubes (Kimble Chase) and evaporated under air (10 PSI) at 40° C. After reconstitution in methanol (4 mL), 1 ml of each sample was separated for the determination of lipid phosphate. Remaining sample (3 mL) was dried and used for sphingolipid quantification. For ESI/MS/MS, the dried lipid sample was dissolved in mobile phase A. Samples were injected (10 μL) and separated on a Spectra C8SR, 150×3.0 mm, 3-μm particle size column using gradient-elution (mobile phase A/B, prepared as previously described).
Data acquisition, peak integration and analyte quantitation were performed using ABI/SCIEX Analyst 1.4.2 Software. Sphingolipid data were normalized to lipid phosphate as previously described (26). Briefly, samples were dried under air (10 PSI) and lipids were extracted using the method of Bligh and Dyer (27). Of importance for phosphate assay, only Kimble Chase disposable borosilicate tubes were used for minimal sample contamination. […] Samples were then incubated with ammonium molybdate and ascorbic acid as previously described, and absorbance ([…]) was read using a SpectraMax.
Cells were treated for 48 hours with Sa (0-4 μM)+/−GT-11 (0.5 μM) with or without C18:0-, C22:0- or C22:1-fatty acids. Cytotoxicity was measured using DIMSCAN, and data was normalized to control and plotted as survival fraction (y-axis). […]

Data set [2] has as its system intracellular sphingolipids, COG-LL-317. The experiment in a line: LC/MS/MS analysis of intracellular sphingolipids, COG-LL-317. The settings on record: for increase in corresponding dihydroceramide over sphinganine+GT-11 alone: COG-LL-317, fatty acid with sphinganine+GT-11, six hours, P<0.05. The format is cell-based, human. How it is done:
as §1
Data acquisition, peak integration and analyte quantitation were performed using ABI/SCIEX Analyst 1.4.2 Software. Sphingolipid data were normalized to lipid phosphate as previously described (26). Briefly, samples were dried under air (10 PSI) and lipids were extracted using the method of Bligh and Dyer (27). Of importance for phosphate assay, only Kimble Chase disposable borosilicate tubes were used for minimal sample contamination. Organic phase was transferred to glass tubes and a known volume was separated to a new tube and dried at 80° C. Phosphate standards and dried samples were then heated with ashing buffer (water:10 N:70% [40:9:1]) at 160° C. overnight. Samples were then incubated with ammonium molybdate and ascorbic acid as previously described, and absorbance ([…]) was read using a SpectraMax.
Cells were treated for 48 hours with Sa (0-4 μM)+/−GT-11 (0.5 μM) with or without C18:0-, C22:0- or C22:1-fatty acids. Cytotoxicity was measured using DIMSCAN, and data was normalized to control and plotted as survival fraction (y-axis). Gray and white symbols represent long and very long chain fatty acids, respectively. Gray lines encompass data used for sphingolipid correlation analysis with cytotoxicity. Datum point, mean; error bar, SEM. […]
Cytotoxicity was measured using DIMSCAN, and data was normalized to control and plotted as survival fraction (y-axis).

Turning to `CCCCCCCCCCCCCCCCCCCCCC(=O)O` [C22:0-fatty acid], in the data set on COG-LL-332, the “effect of fatty acid co-treatment on cytotoxicity of sphinganine with GT-11” value is recorded as “increased”. Moreover, the “increase of C22:0-dihydroceramide over sphinganine+GT-11 alone” value in data set [1] (MOLT-4, fatty acid with sphinganine 1 μM plus GT-11 0.5 μM, six hours, P<0.01) was 29 fold; in data set [2] (COG-LL-317, fatty acid with sphinganine 1 μM plus GT-11 0.5 μM, six hours, P<0.003) it was 13 fold. The “increase in corresponding dihydroceramide over sphinganine+GT-11 alone” value in data set [1] and in data set [2] was “significant increases” each time. Also, in data set [2] (COG-LL-317, fatty acid with 4-HPR 1.1 μM, six hours, P<0.001), the “increase of C22:0-dihydroceramide compared to 4-HPR alone” value was 11 fold.

Take `CCCCCCCC/C=C\CCCCCCCCCCCC(=O)O` [C22:1-fatty acid]: the “effect of fatty acid co-treatment on cytotoxicity of sphinganine with GT-11” value in the data set with COG-LL-332 is “not”. Besides, the “increase in corresponding dihydroceramide over sphinganine+GT-11 alone” value in data set [1] and in data set [2] was “significant increases” in each case.

Source of the values: patent publication US20120121691A1, “Method for Increasing the Production of a Specific ACYL-Chain Dihydroceramide(s) for Improving the Effectiveness of Cancer Treatments” (priority 2010, published 2012).
